Data taken from paper PMC12010322, “ReaxFF-Guided Optimization of VIRIP-Based HIV-1 Entry Inhibitors” (The Journal of Physical Chemistry. B, 2025).
Entries after “also recorded” stand apart in the source; their conditions may differ. Bridge positions count the residues as written; N and C are the ends. Ends that are not written are not given here. Peptide text beside a SMILES is read from it.

What was measured:
[1] = tested on: HIV-1 CH077 (clade B transmitted-founder); conditions: TZM-bl cells, clade B CH077 TF HIV-1
Experimental: (§1) Figure 3 Size optimization of VIR-148. (A) TZM-bl reporter cells were incubated with increasing concentrations of VIR-148, VIR-102, or the indicated internally truncated itVIRIP derivatives. Cells were subsequently infected with HIV-1 NL4-3, and beta-galactosidase activity was determined 3 days after infection. (B) Hemolytic effect of indicated compounds on human erythrocytes. Each tile represents the area under the curve (AUC) for hemolytic activity. Full hemolysis is represented by a Triton-X control. (C) Amino acid alignment of the FP regions (red) of HIV-1 CH042, CH077, SIVmac239 and HIV-2 ROD10. (D) TZM-bl cells were incubated with increasing concentrations of VIR-148 or soVIRIP and subsequently infected with the HIV-1 CH042 or CH077, SIVmac239 or HIV-2 ROD10. […] The contribution of each amino acid to the binding interaction is indicated by color saturation. (F) Time-resolved ReaxFF-based molecular dynamics simulation of the interaction between soVIRIP and the HIV-1 FP. The trajectories are shown for VIR-148 (blue) and soVIRIP (orange). (G) Correlation between the free energy contribution of each amino acid of soVIRIP with the corresponding amino acid in VIR-148, based on ReaxFF simulations.
(§2) To determine infectious virus yield, 10,000 TZM-bl reporter cells/well were seeded in 96-well plates and infected with cell culture supernatants, under reduced 1% FCS conditions, in triplicates on the following day. Three days p.i., cells were lysed and β-galactosidase reporter gene expression was determined using the GalScreen Kit (Applied Bioscience) according to the manufacturer’s instructions with an Orion microplate luminometer (Berthold).
(§3) 10,000 TZM-bl reporter cells were seeded in 96-well plates in 100 μL of supplemented DMEM. The following day, the medium was changed to reduced 1% FCS-supplemented DMEM, and serially diluted peptide was added to the cells. The cells were subsequently infected with 10 μL of infectivity-normalized virus stocks. At 3 days postinfection, the supernatant was removed, and β-galactosidase activity was measured as previously described.

[2] = tested on: HIV-1 CH042 (clade C transmitted-founder); conditions: TZM-bl cells, clade C CH042 TF HIV-1
Experimental: as §1, §2, §3

zebrafish embryos = experiment: Zebrafish embryo toxicity; conditions: for toxicity in zebrafish embryos: embryos exposed from 24 hpf for 24 h, 60 embryos per group, two experiments, NRC-03 3 μM, abamectin 3.125 μM
Experimental: For in vivo studies, wild-type zebrafish embryos (Danio rerio) were dechorionated at 24 h post fertilization (hpf) using digestion with 1 mg/mL Pronase (Sigma) in E3 medium ([…]). In a 96-well plate, 3 embryos per well were exposed for 24 h to 100 μL of E3 containing VIRIP peptides at the concentrations indicated in the figures. Two independent assays were performed, each with 10 × 3 embryos. The peptide solvent (DMSO), diluted in E3, was used as negative control at the same amount as introduced by the peptide stock. […] Abamectin at a concentration of 3.125 μM was used as positive control for neurotoxicity.[49] At 48 hpf (after 24 h of incubation) embryos were scored in a stereomicroscope for signs of cytotoxicity (lysis and/or necrosis), developmental toxicity (delay and/or malformations) or cardiotoxicity (heart edema and/or reduced or absent circulation). Each embryo was also touched with a needle and reduced or absent touch response (escape movements) was evaluated as signs of neurotoxicity if and only if no signs of acute toxicity were present in the same embryo. Embryos were categorized within each of these toxicity categories into several classes of severity.[35]

HIV-1 NL4-3 = tested on: HIV-1 NL4-3
Text: To further define critical residues and to assess whether the loop structure is required for antiviral activity, we generated short peptides of six, seven or ten amino acids corresponding to the C- or N-termini of VIR-148, respectively. To determine their antiviral activity, we pretreated TZM-bl reporter cells with various concentrations of individual or mixed peptides and subsequently exposed them to the CXCR4-tropic HIV-1 NL4–3 strain. TZM-bl reporter cells are highly susceptible to HIV-1 infection and contain the β-galactosidase reporter gene under the control of the HIV-1 long terminal repeat.[34] Three days later, infection was quantified by β-galactosidase assay.
as §2, §3

HIV-2 ROD10 = experiment: TZM-bl infection inhibition, HIV-2 ROD10; assay type: cell-based; conditions: TZM-bl cells
Experimental: (§4) Figure 3 Size optimization of VIR-148. (A) TZM-bl reporter cells were incubated with increasing concentrations of VIR-148, VIR-102, or the indicated internally truncated itVIRIP derivatives. Cells were subsequently infected with HIV-1 NL4-3, and beta-galactosidase activity was determined 3 days after infection. (B) Hemolytic effect of indicated compounds on human erythrocytes. Each tile represents the area under the curve (AUC) for hemolytic activity. Full hemolysis is represented by a Triton-X control. (C) Amino acid alignment of the FP regions (red) of HIV-1 CH042, CH077, SIVmac239 and HIV-2 ROD10. […]
as §2
(§5) 10,000 TZM-bl reporter cells were seeded in 96-well plates in 100 μL of supplemented DMEM. […] At 3 days postinfection, the supernatant was removed, and β-galactosidase activity was measured as previously described.

SIVmac239 = experiment: TZM-bl infection inhibition, SIVmac239; assay type: cell-based, SIVmac; conditions: TZM-bl cells
Experimental: as §4, §2, §5

CC[C@H](C)[C@H](NC(=O)[C@H](C)NC(=O)[C@H](CCC(=O)O)NC(=O)[C@@H](N)CC(C)C)C(=O)N1CCC[C@H]1C(=O)N[C@H]1CSSC[C@@H](C(=O)N[C@H](C(=O)N[C@@H](C)C(=O)N[C@@H](Cc2ccccc2)C(=O)N[C@@H](CC(N)=O)C(=O)N[C@@H](CCCCN)C(=O)N2CCC[C@H]2C(=O)N[C@@H](Cc2ccccc2)C(=O)N[C@H](C(=O)N[C@@H](Cc2ccccc2)C(=O)O)C(C)C)C(C)C)NC(=O)[C@@H]2CCCN2C(=O)[C@@H]2CCCN2C(=O)[C@H]([C@@H](C)CC)NC(=O)[C@H](CO)NC1=O [VIR-148, reference compound] (H-LEAIPCSIPPCVAFNKPFVF-OH; disulfide 6-11)
IC50 [1]: 39 nM | IC50 [2]: 37 nM

GRRKRKWLRRIGKGVKIIGG AALDHL-NH2 [NRC-03, reference compound]
toxicity in zebrafish embryos (zebrafish embryos): exhibited the expected toxicities

LEAIPVAFVF [soVIRIP]
IC50 (HIV-1 NL4-3; NL4-3): 120 nM | antiviral activity (in words) (HIV-1 NL4-3; TZM-bl reporter cells, HIV-1 NL4-3, β-galactosidase 3 days postinfection): maintained full antiviral activity | higher antiviral activity compared to the original VIRIP (HIV-1 NL4-3; ratio of IC50 values): more than 100 fold | activity against HIV-2 ROD10 (HIV-2 ROD10): inactive | activity against SIVmac239 (SIVmac239): inactive | toxicity in zebrafish embryos (zebrafish embryos): did not display significant toxic effects; also recorded: nontoxic | nontoxic concentration relative to IC50 against primary HIV-1 strains (zebrafish embryos; zebrafish embryos): about 2,500 fold | IC50 [1]: 39 nM | IC50 [2]: 37 nM

abamectin [reference compound]
toxicity in zebrafish embryos (zebrafish embryos): exhibited the expected toxicities
